Bounds are passed on as bounds.

For one series, the system named is Human coronavirus OC43. The series is described as follows: Antiviral activity against HCoV-OC43 infected in human NCI-H460 cells incubated for 72 hrs by CCK8 assay. It counts as functional, organism-based. The settings on record: Betacoronavirus 1, NCI-H460, 72 h. A general note: Tetrazolium dyes change colour on reduction, which living cells bring about.
A short description of series [1]: Cytotoxicity against human NCI-H460 cells incubated for 72 hrs by CCK8 assay. It counts as toxicity, cell-based. The settings on record: read-out: EC50.
The nature of series [2]: Selectivity index, ratio of CC50 for cytotoxicity against human NCI-H460 cells to EC50 for antiviral activity against HCoV-OC43 infected in human NCI-H460 cells. It is filed as toxicity, cell-based, NCI-460. The settings on record: read-out: Ratio CC50/EC50.

Broadly, the EC50 is the concentration that produces a half-maximal response. Low values mean an effect from little substance, high ones a need for much substance. In the series on Human coronavirus OC43, `CO[C@@H]1[C@@H](O[C@@H]2O[C@H](C)[C@@H](O[C@H]3C[C@@](C)(O)[C@@H](O)[C@H](C)O3)[C@H](N(C)C)[C@H]2OC(=O)CCCc2ccccc2)[C@@H](CC=O)C[C@@H](C)[C@@H](O[C@H]2CC[C@H](N(C)C)[C@@H](C)O2)/C=C/C=C/C[C@@H](C)OC(=O)C[C@H]1O` yielded an EC50 of 11.9 µM. The CC50 at 72 h in series [1] worked out at 39.3 µM. Further, the selectivity ratio in series [2] stood at 3.3.

In turn, `CO[C@@H]1[C@@H](O[C@@H]2O[C@H](C)[C@@H](O[C@H]3C[C@@](C)(O)[C@@H](OC(=O)Cc4ccc(Cl)cc4)[C@H](C)O3)[C@H](N(C)C)[C@H]2OC(C)=O)[C@@H](CC=O)C[C@@H](C)[C@@H](O[C@H]2CC[C@H](N(C)C)[C@@H](C)O2)/C=C/C=C/C[C@@H](C)OC(=O)C[C@H]1O` gave an EC50 with Human coronavirus OC43 above 6.25 µM. For the same compound, the CC50 at 72 h in series [1] worked out at 7.4 µM. Moreover, in series [2], the selectivity ratio is below 1.2.

In the series on Human coronavirus OC43, `CO[C@@H]1[C@@H](O[C@@H]2O[C@H](C)[C@@H](O[C@H]3C[C@@](C)(O)[C@@H](O)[C@H](C)O3)[C@H](N(C)C)[C@H]2OC(=O)CCc2ccccc2)[C@@H](CC=O)C[C@@H](C)[C@@H](O[C@H]2CC[C@H](N(C)C)[C@@H](C)O2)/C=C/C=C/C[C@@H](C)OC(=O)C[C@H]1O` had a concentration giving a half-maximal response (EC50) of 3.89 µM. The CC50 at 72 h in series [1] came to 18.9 µM. In addition, in series [2], the selectivity ratio was 4.8.

In the series with Human coronavirus OC43, `CO[C@@H]1[C@@H](O[C@@H]2O[C@H](C)[C@@H](O[C@H]3C[C@@](C)(O)[C@@H](OC(=O)CC(C)C)[C@H](C)O3)[C@H](N(C)C)[C@H]2OC(C)=O)[C@@H](CC=O)C[C@@H](C)[C@@H](O[C@H]2CC[C@H](N(C)C)[C@@H](C)O2)/C=C/C=C/C[C@@H](C)OC(=O)C[C@H]1O` had an EC50 of 7.89 µM. In addition, in series [1], the CC50 at 72 h was determined as 25.7 µM. In addition, the selectivity ratio in series [2] turned out to be 3.3.

In turn, `CO[C@@H]1[C@@H](O[C@@H]2O[C@H](C)[C@@H](O[C@H]3C[C@@](C)(O)[C@@H](O)[C@H](C)O3)[C@H](N(C)C)[C@H]2OC(=O)C2CCCCC2)[C@@H](CC=O)C[C@@H](C)[C@@H](O[C@H]2CC[C@H](N(C)C)[C@@H](C)O2)/C=C/C=C/C[C@@H](C)OC(=O)C[C@H]1O` returned an EC50 in the series with Human coronavirus OC43 above 12.5 µM. The CC50 at 72 h in series [1] was determined as 15 µM. In series [2], the selectivity ratio is below 1.2.

`CO[C@@H]1[C@@H](O[C@@H]2O[C@H](C)[C@@H](O[C@H]3C[C@@](C)(O)[C@@H](O)[C@H](C)O3)[C@H](N(C)C)[C@H]2OC(=O)CC(C)(C)C)[C@@H](CC=O)C[C@@H](C)[C@@H](O[C@H]2CC[C@H](N(C)C)[C@@H](C)O2)/C=C/C=C/C[C@@H](C)OC(=O)C[C@H]1O` yielded an EC50 in the series on Human coronavirus OC43 of 4.89 µM. Moreover, the CC50 at 72 h in series [1] was found to be 13.4 µM. In series [2], the selectivity ratio turned out to be 2.7.

In the series with Human coronavirus OC43, `COc1ccc(CC(=O)O[C@H]2[C@H](C)O[C@@H](O[C@H]3[C@H](N(C)C)[C@@H](OC(C)=O)[C@H](O[C@H]4[C@@H](CC=O)C[C@@H](C)[C@@H](O[C@H]5CC[C@H](N(C)C)[C@@H](C)O5)/C=C/C=C/C[C@@H](C)OC(=O)C[C@@H](O)[C@@H]4OC)O[C@@H]3C)C[C@@]2(C)O)cc1` displayed an EC50 above 6.25 µM. The CC50 at 72 h in series [1] is 13.1 µM. Further, in series [2], the selectivity ratio is below 2.1.

In the series with Human coronavirus OC43, `CCCC(=O)O[C@H]1[C@H](C)O[C@@H](O[C@H]2[C@H](N(C)C)[C@@H](O)[C@H](O[C@H]3[C@@H](CC=O)C[C@@H](C)[C@@H](O[C@H]4CC[C@H](N(C)C)[C@@H](C)O4)/C=C/C=C/C[C@@H](C)OC(=O)C[C@@H](O)[C@@H]3OC)O[C@@H]2C)C[C@@]1(C)O` displayed an EC50 of 5.17 µM. For the same compound, the CC50 at 72 h in series [1] is 33.1 µM. Further, the selectivity ratio in series [2] came out at 6.4.

Take `COc1ccc(CCC(=O)O[C@H]2[C@H](O[C@H]3[C@@H](CC=O)C[C@@H](C)[C@@H](O[C@H]4CC[C@H](N(C)C)[C@@H](C)O4)/C=C/C=C/C[C@@H](C)OC(=O)C[C@@H](O)[C@@H]3OC)O[C@H](C)[C@@H](O[C@H]3C[C@@](C)(O)[C@@H](O)[C@H](C)O3)[C@@H]2N(C)C)cc1`: in the series on Human coronavirus OC43, the EC50 is 4.52 µM. For the same compound, in series [1], the CC50 at 72 h is 13.8 µM. The selectivity ratio in series [2] was 3.

`C=CC(=O)O[C@H]1[C@H](C)O[C@@H](O[C@H]2[C@H](N(C)C)[C@@H](OC(C)=O)[C@H](O[C@H]3[C@@H](CC=O)C[C@@H](C)[C@@H](O[C@H]4CC[C@H](N(C)C)[C@@H](C)O4)/C=C/C=C/C[C@@H](C)OC(=O)C[C@@H](O)[C@@H]3OC)O[C@@H]2C)C[C@@]1(C)O` registered an EC50 in the series on Human coronavirus OC43 of 4.78 µM. Also, the CC50 at 72 h in series [1] was 18.9 µM. Further, the selectivity ratio in series [2] came to 4.

Turning to `COc1ccc(CC(=O)O[C@H]2[C@H](C)O[C@@H](O[C@H]3[C@H](N(C)C)[C@@H](O)[C@H](O[C@H]4[C@@H](CC=O)C[C@@H](C)[C@@H](O[C@H]5CC[C@H](N(C)C)[C@@H](C)O5)/C=C/C=C/C[C@@H](C)OC(=O)C[C@@H](O)[C@@H]4OC)O[C@@H]3C)C[C@@]2(C)O)cc1`, in the series with Human coronavirus OC43, the EC50 is above 12.5 µM. Also, the CC50 at 72 h in series [1] amounted to 27 µM. Also, the selectivity ratio in series [2] was below 2.2.

Turning to `CCCCCC(=O)O[C@H]1[C@H](O[C@H]2[C@@H](CC=O)C[C@@H](C)[C@@H](O[C@H]3CC[C@H](N(C)C)[C@@H](C)O3)/C=C/C=C/C[C@@H](C)OC(=O)C[C@@H](O)[C@@H]2OC)O[C@H](C)[C@@H](O[C@H]2C[C@@](C)(O)[C@@H](O)[C@H](C)O2)[C@@H]1N(C)C`, in the series on Human coronavirus OC43, the 50% effective concentration (EC50) was found to be 5.05 µM. The CC50 at 72 h in series [1] was 18.2 µM. Also, the selectivity ratio in series [2] amounted to 3.6.

In the series on Human coronavirus OC43, `CO[C@@H]1[C@@H](O[C@@H]2O[C@H](C)[C@@H](O[C@H]3C[C@@](C)(O)[C@@H](O)[C@H](C)O3)[C@H](N(C)C)[C@H]2OC(=O)c2ccc(C(F)(F)F)cc2)[C@@H](CC=O)C[C@@H](C)[C@@H](O[C@H]2CC[C@H](N(C)C)[C@@H](C)O2)/C=C/C=C/C[C@@H](C)OC(=O)C[C@H]1O` registered an EC50 of 5.96 µM. Besides, the CC50 at 72 h in series [1] stood at 6.74 µM. In series [2], the selectivity ratio stood at 1.1.

In the series on Human coronavirus OC43, `CCC(=O)O[C@H]1[C@H](O[C@H]2[C@@H](CC=O)C[C@@H](C)[C@@H](O[C@H]3CC[C@H](N(C)C)[C@@H](C)O3)/C=C/C=C/C[C@@H](C)OC(=O)C[C@@H](O)[C@@H]2OC)O[C@H](C)[C@@H](O[C@H]2C[C@@](C)(O)[C@@H](O)[C@H](C)O2)[C@@H]1N(C)C` came in with an EC50 of 23.4 µM. Besides, the CC50 at 72 h in series [1] was above 161 µM. In series [2], the selectivity ratio was above 6.9.

For the compound `CO[C@@H]1[C@@H](O[C@@H]2O[C@H](C)[C@@H](O[C@H]3C[C@@](C)(O)[C@@H](O)[C@H](C)O3)[C@H](N(C)C)[C@H]2OC(=O)c2ccc(F)c(C(F)(F)F)c2)[C@@H](CC=O)C[C@@H](C)[C@@H](O[C@H]2CC[C@H](N(C)C)[C@@H](C)O2)/C=C/C=C/C[C@@H](C)OC(=O)C[C@H]1O`, the EC50 with Human coronavirus OC43 was 1.79 µM. Further, the CC50 at 72 h in series [1] was 5.52 µM. Besides, the selectivity ratio in series [2] amounted to 3.1.

As to `CCCCC(=O)O[C@H]1[C@H](O[C@H]2[C@@H](CC=O)C[C@@H](C)[C@@H](O[C@H]3CC[C@H](N(C)C)[C@@H](C)O3)/C=C/C=C/C[C@@H](C)OC(=O)C[C@@H](O)[C@@H]2OC)O[C@H](C)[C@@H](O[C@H]2C[C@@](C)(O)[C@@H](O)[C@H](C)O2)[C@@H]1N(C)C`, the response with Human coronavirus OC43 was half-maximal at 5.35 µM (EC50). For the same compound, the CC50 at 72 h in series [1] is 33.5 µM. For the same compound, the selectivity ratio in series [2] was determined as 6.2.

`CC(C)C(=O)OC[C@H]1O[C@@H](n2ccc(NO)nc2=O)[C@H](O)[C@@H]1O` [MOLNUPIRAVIR] returned an EC50 with Human coronavirus OC43 of 0.16 µM. Also, in series [2], the selectivity ratio is 196.

The compound `CO[C@@H]1[C@@H](O[C@@H]2O[C@H](C)[C@@H](O[C@H]3C[C@@](C)(O)[C@@H](O)[C@H](C)O3)[C@H](N(C)C)[C@H]2OC(=O)/C=C/c2ccccc2)[C@@H](CC=O)C[C@@H](C)[C@@H](O[C@H]2CC[C@H](N(C)C)[C@@H](C)O2)/C=C/C=C/C[C@@H](C)OC(=O)C[C@H]1O` gave an EC50 in the series with Human coronavirus OC43 of 1.48 µM. Also, the CC50 at 72 h in series [1] was found to be 5.57 µM. In addition, the selectivity ratio in series [2] was determined as 3.8.

As for `CO[C@@H]1[C@@H](O[C@@H]2O[C@H](C)[C@@H](O[C@H]3C[C@@](C)(O)[C@@H](O)[C@H](C)O3)[C@H](N(C)C)[C@H]2OC(=O)C2CCC2)[C@@H](CC=O)C[C@@H](C)[C@@H](O[C@H]2CC[C@H](N(C)C)[C@@H](C)O2)/C=C/C=C/C[C@@H](C)OC(=O)C[C@H]1O`, the EC50 in the series on Human coronavirus OC43 was above 6.25 µM. In addition, the CC50 at 72 h in series [1] came to 13.7 µM. In series [2], the selectivity ratio is below 2.2.

In turn, `C=CC(=O)O[C@H]1[C@H](C)O[C@@H](O[C@H]2[C@H](N(C)C)[C@@H](O)[C@H](O[C@H]3[C@@H](CC=O)C[C@@H](C)[C@@H](O[C@H]4CC[C@H](N(C)C)[C@@H](C)O4)/C=C/C=C/C[C@@H](C)OC(=O)C[C@@H](O)[C@@H]3OC)O[C@@H]2C)C[C@@]1(C)O` returned an EC50 with Human coronavirus OC43 of 12 µM. Besides, the CC50 at 72 h in series [1] worked out at 38.4 µM. Also, in series [2], the selectivity ratio was found to be 3.2.

`CO[C@@H]1[C@@H](O[C@@H]2O[C@H](C)[C@@H](O[C@H]3C[C@@](C)(O)[C@@H](O)[C@H](C)O3)[C@H](N(C)C)[C@H]2OC(=O)CC(C)C)[C@@H](CC=O)C[C@@H](C)[C@@H](O[C@H]2CC[C@H](N(C)C)[C@@H](C)O2)/C=C/C=C/C[C@@H](C)OC(=O)C[C@H]1O`: a half-maximal effect with Human coronavirus OC43 (EC50) was put at 4.82 µM. Besides, the CC50 at 72 h in series [1] is 17.1 µM. In addition, in series [2], the selectivity ratio came out at 3.5.

For the compound `CO[C@@H]1[C@@H](O[C@@H]2O[C@H](C)[C@@H](O[C@H]3C[C@@](C)(O)[C@@H](O)[C@H](C)O3)[C@H](N(C)C)[C@H]2OC(=O)C(C)(C)C)[C@@H](CC=O)C[C@@H](C)[C@@H](O[C@H]2CC[C@H](N(C)C)[C@@H](C)O2)/C=C/C=C/C[C@@H](C)OC(=O)C[C@H]1O`, in the series on Human coronavirus OC43, a half-maximal effect (EC50) was put at 4.5 µM. Moreover, in series [1], the CC50 at 72 h was 16.2 µM. In addition, the selectivity ratio in series [2] was found to be 3.6.
